Consider 29 compounds from patent US20100292255A1, “Therapeutic Compounds and Their Use in Treating Diseases and Disorders” (Myriad Pharmaceuticals, Inc., priority 2007, published 2010).

The subject of the first assay is T1, purified human Hsp90.
T1 construct: purified human Hsp90 (Stressgen, SPP-770)
As to the kind of experiment: Hsp90 binding assay: displacement of BODIPY-labeled geldanamycin measured by fluorescence polarization. The settings on record: 5 μM compound; BODIPY-GM 10 nM, Hsp90 30 nM, overnight at room temperature. In short, it runs like this: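 Purified human Hsp90 at 30 nM and 10 nM BODIPY-GM tracer were incubated overnight at room temperature with compound in 2% DMSO. The buffer was 20 mM HEPES-KOH pH 7.3, 50 mM KCl, 5 mM MgCl2, 20 mM Na2MoO4, 2 mM DTT. Background-subtracted mP values read at 485/530 nm were normalized to DMSO wells to give % inhibition.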
On the technique in general: In fluorescence polarisation assays a small probe gives low polarisation when free and higher when bound to something large.
In the case of `CCCC(=O)N1CCC(CCn2cnc(N)c3nc(Sc4cc5c(cc4Br)OCCO5)nc2-3)CC1` [compound 83, 8-[(7-Bromo-2,3-dihydro-1,4-benzodioxin-6-yl)thio]-3-[2-(1-butyrylpiperidin-4-yl)ethyl]-3H-purin-6-amine], the “GM displacement from purified Hsp90 measured by FP Inhibition by 5 μM compd. (%)” value is 19.0%.

Turning to `Nc1ncn(CCC2CCN(C=O)CC2)c2nc(Sc3cc4c(cc3Br)CCC4)nc1-2` [compound 85], the “GM displacement from purified Hsp90 measured by FP Inhibition by 5 μM compd. (%)” value was determined as 35.0%.

As for `Nc1ncn(CCC2CCN(C=O)CC2)c2nc(Sc3cc4c(cc3Br)C(=O)CC4)nc1-2` [compound 87, 4-(2-{6-Amino-8-[(6-bromo-1-oxo-2,3-dihydro-1H-inden-5-yl)thio]-3H-purin-3-yl}ethyl)piperidine-l-carbaldehyde], the “GM displacement from purified Hsp90 measured by FP Inhibition by 5 μM compd. (%)” value was 20.0%.

Take `Nc1ncn(CCC2CCN(C(=O)CO)CC2)c2nc(Sc3cc4c(cc3Br)OCCO4)nc1-2` [compound 91, 2-[4-(2-{6-Amino-8-[(7-bromo-2,3-dihydro-1,4-benzodioxin-6-yl)thio]-3H-purin-3-yl}ethyl)piperidin-1-yl]-2-oxoethanol]: the “GM displacement from purified Hsp90 measured by FP Inhibition by 5 μM compd. (%)” value is given as 32.0%.

`CC(C)(O)C(=O)N1CCC(CCn2cnc(N)c3nc(Sc4cc5c(cc4Br)OCCO5)nc2-3)CC1` [compound 93, l-[4-(2-{6-Amino-8-[(7-bromo-2,3-dihydro-1,4-benzodioxin-6-yl)thio]-3H-purin-3-yl}ethyl)piperidin-1-yl]-2-methyl-1-oxopropan-2-ol]: the “GM displacement from purified Hsp90 measured by FP Inhibition by 5 μM compd. (%)” value was 53.0%.

`COc1ccc(Br)c(Sc2nc3c(N)ncn(CCC4CCN(C(=O)CO)CC4)c-3n2)c1` [compound 94, 2-[4-(2-{6-Amino-8-[(2-bromo-5-methoxyphenyl)thio]-3H-purin-3-yl}ethyl)piperidin-1-yl]-2-oxoethanol]: the “GM displacement from purified Hsp90 measured by FP Inhibition by 5 μM compd. (%)” value was determined as 10.0%.

Regarding `C[C@H](O)C(=O)N1CCC(CCn2cnc(N)c3nc(Sc4cc5c(cc4C#N)OCO5)nc2-3)CC1` [compound 96, 6-{[6-Amino-3-(2-{1-[(2S)-2-hydroxypropanoyl]piperidin-4-yl}ethyl)-3H-purin-8-yl]thio}-1,3-benzodioxole-5-carbonitrile], the “GM displacement from purified Hsp90 measured by FP Inhibition by 5 μM compd. (%)” value stood at 13.0%.

In the case of `C[C@H](O)C(=O)N1CCC(CCn2cnc(N)c3nc(Sc4cc5c(cc4C#N)OCCO5)nc2-3)CC1` [compound 100, 7-{[6-Amino-3-(2-{1-[(2S)-2-hydroxypropanoyl]piperidin-4-yl}ethyl)-3H-purin-8-yl]thio}-2,3-dihydro-1,4-benzodioxine-6-carbonitrile], the “GM displacement from purified Hsp90 measured by FP Inhibition by 5 μM compd. (%)” value is 27.0%.

With `COc1ccc(OC(F)(F)F)c(Sc2nc3c(N)ncn(CCC4CCN(C(=O)CO)CC4)c-3n2)c1` [compound 103, 2-{4-[2-(6-Amino-8-{[5-methoxy-2-(trifluoromethoxy)phenyl]thio}-3H-purin-3-yl)ethyl]piperidin-1-yl}-2-oxoethanol], the “GM displacement from purified Hsp90 measured by FP Inhibition by 5 μM compd. (%)” value was found to be 18.0%.

With `COc1ccc(C#N)c(Sc2nc3c(N)ncn(CCC4CCN(C(=O)CO)CC4)c-3n2)c1` [compound 105, 2-({6-Amino-3-[2-(1-glycoloylpiperidin-4-yl)ethyl]-3H-purin-8-yl}thio)-4-methoxybenzonitrile], the “GM displacement from purified Hsp90 measured by FP Inhibition by 5 μM compd. (%)” value is listed as 17.0%.

Take `CC(C)(C)[C@H](O)C(=O)N1CCC(CCn2cnc(N)c3nc(Sc4cc5c(cc4Br)OCCO5)nc2-3)CC1` [compound 107, (2S)-1-[4-(2-{6-Amino-8-[(7-bromo-2,3-dihydro-1,4-benzodioxin-6-yl)thio]-3H-purin-3-yl}ethyl)piperidin-1-yl]-3,3-dimethyl-1-oxobutan-2-ol]: the “GM displacement from purified Hsp90 measured by FP Inhibition by 5 μM compd. (%)” value was 59.0%.

Regarding `C[C@H](O)C(=O)N1CCC(CCn2cnc(N)c3nc(Sc4cc5c(cc4Br)CCC5)nc2-3)CC1` [compound 109, (S)-1-(4-{2-[6-Amino-8-(6-bromo-indan-5-ylsulfanyl)-purin-3-yl]-ethyl}-piperidin-1-yl)-2-hydroxy-propan-1-one], the “GM displacement from purified Hsp90 measured by FP Inhibition by 5 μM compd. (%)” value came out at 58.0%.

In the case of `CCc1ccc(Br)c(Sc2nc3c(N)ncn(CCC4CCN(C(=O)[C@H](C)O)CC4)c-3n2)c1` [compound 112, (2S)-1-[4-(2-{6-Amino-8-[(2-bromo-5-ethylphenyl)thio]-3H-purin-3-yl}ethyl)piperidin-1-yl]-1-oxopropan-2-ol], the “GM displacement from purified Hsp90 measured by FP Inhibition by 5 μM compd. (%)” value is given as 13.0%.

Regarding `C[C@H](NC(=O)OC(C)(C)C)C(=O)N1CCCC(Cn2cnc(N)c3nc(Sc4nc5cccc(Cl)c5s4)nc2-3)C1` (stereo partly drawn) [compound 116, tert-Butyl {(1S)-2-[3-({6-amino-8-[(7-chloro-1,3-benzothiazol-2-yl)thio]-3H-purin-3-yl}methyl)piperidin-1-yl]-1-methyl-2-oxoethyl}carbamate], the “GM displacement from purified Hsp90 measured by FP Inhibition by 5 μM compd. (%)” value worked out at 15.0%.

Staying with this assay, now noted: BODIPY-GM 10 nM, Hsp90 30 nM, overnight at room temperature; read-out: GM displacement from purified Hsp90 measured by FP IC 50.
`CCCC(=O)N1CCC(CCn2c(Sc3cc4c(cc3Br)OCO4)nc3c(N)ncnc32)CC1` [compound 82, 8-[(6-Bromo-1,3-benzodioxol-5-yl)thio]-9-[2-(1-butyrylpiperidin-4-yl)ethyl]-9H-purin-6-amine]: the IC50 turned out to be 295 nM.

As to `Nc1ncnc2c1nc(Sc1cc3c(cc1Br)CCC3)n2CCC1CCN(C=O)CC1` [compound 84], the IC50 came out at 20 nM.

Regarding `Nc1ncnc2c1nc(Sc1cc3c(cc1Br)C(=O)CC3)n2CCC1CCN(C=O)CC1` [compound 86, 4-(2{6-Amino-8-[(6-bromo-l-oxo-2,3-dihydro-1H-inden-5-yl)thio]-9H-purin-9-yl}ethyl)piperidine-1-carbaldehyde], the IC50 amounted to 60 nM.

Regarding `C[C@H](O)C(=O)N1CCC(CCn2c(Sc3cc4c(cc3Br)OCCO4)nc3c(N)ncnc32)CC1` [compound 88, (2S)-1-[4-(2-{6-Amino-8-[(7-bromo-2,3-dihydro-1,4-benzodioxin-6-yl)thio]-9H-purin-9-yl}ethyl)piperidin-1-yl]-1-oxopropan-2-ol], the IC50 was 80 nM.

Take `Nc1ncnc2c1nc(Sc1cc3c(cc1Br)OCCO3)n2CCC1CCN(C(=O)CO)CC1` [compound 90, 2-[4-(2-{6-Amino-8-[(7-bromo-2,3-dihydro-1,4-benzodioxin-6-yl)thio]-9H-purin-9-yl}ethyl)piperidin-1-yl]-2-oxoethanol]: the IC50 was 90 nM.

Take `CC(C)(O)C(=O)N1CCC(CCn2c(Sc3cc4c(cc3Br)OCCO4)nc3c(N)ncnc32)CC1` [compound 92, 1-[4-(2-{6-Amino-8-[(7-bromo-2,3-dihydro-1,4-benzodioxin-6-yl)thio]-9H-purin-9-yl}ethyl)piperidin-1-yl]-2-methyl-1-oxopropan-2-ol]: the IC50 worked out at 90 nM.

As to `C[C@H](O)C(=O)N1CCC(CCn2c(Sc3cc4c(cc3C#N)OCO4)nc3c(N)ncnc32)CC1` [compound 95, 6-{[6-Amino-9-(2-{1-[(2S)-2-hydroxypropanoyl]piperidin-4-yl}ethyl)-9H-purin-8-yl]thio}-l,3-benzodioxole-5-carbonitrile], the IC50 is 700 nM.

For the compound `N#Cc1cc2c(cc1Sc1nc3c(N)ncnc3n1CCC1CCN(C(=O)CO)CC1)OCO2` [compound 97, 6-({6-Amino-9-[2-(1-glycoloylpiperidin-4-yl)ethyl]-9H-purin-8-yl}thio)-1,3-benzodioxole-5-carbonitrile], the IC50 came out at 350 nM.

`C[C@H](O)C(=O)N1CCC(CCn2c(Sc3cc4c(cc3C#N)OCCO4)nc3c(N)ncnc32)CC1` [compound 99, 7-{[6-Amino-9-(2-{1-[(2S)-2-hydroxypropanoyl]piperidin-4-yl}ethyl)-9H-purin-8-yl]thio}-2,3-dihydro-1,4-benzodioxine-6-carbonitrile]: the IC50 was found to be 490 nM.

Take `N#Cc1cc2c(cc1Sc1nc3c(N)ncnc3n1CCC1CCN(C(=O)CO)CC1)OCCO2` [compound 101, 7-({6-Amino-9-[2-(1-glycoloylpiperidin-4-yl)ethyl]-9H-purin-8-yl}thio)-2,3-dihydro-1,4-benzodioxine-6-carbonitrile]: the IC50 was 200 nM.

Take `COc1ccc(OC(F)(F)F)c(Sc2nc3c(N)ncnc3n2CCC2CCN(C(=O)CO)CC2)c1` [compound 102, 2-{4-[2-(6-Amino-8-{[5-methoxy-2-(trifluoromethoxy)phenyl]thio}-9H-purin-9-yl)ethyl]piperidin-1-yl}-2-oxoethanol]: the IC50 was found to be 280 nM.

Regarding `COc1ccc(C#N)c(Sc2nc3c(N)ncnc3n2CCC2CCN(C(=O)CO)CC2)c1` [compound 104, 2-({6-Amino-9-[2-(1-glycoloylpiperidin-4-yl)ethyl]-9H-purin-8-yl}thio)-4-methoxybenzonitrile], the IC50 came to 800 nM.

In the case of `CC(C)(C)[C@H](O)C(=O)N1CCC(CCn2c(Sc3cc4c(cc3Br)OCCO4)nc3c(N)ncnc32)CC1` [compound 106, (2S)-1-[4-(2-{6-Amino-8-[(7-bromo-2,3-dihydro-1,4-benzodioxin-6-yl)thio]-9H-purin-9-yl}ethyl)piperidin-1-yl]-3,3-dimethyl-1-oxobutan-2-ol], the IC50 was 70 nM.

Consider `C[C@H](O)C(=O)N1CCC(CCn2c(Sc3cc4c(cc3Br)CCC4)nc3c(N)ncnc32)CC1` [compound 108, (S)-1-(4-{2-[6-Amino-8-(6-bromo-indan-5-ylsuIfanyl)-purin-9-yl]-ethyl}-piperidin-1-yl)-2-hydroxy-propan-1-one], for which the IC50 was found to be 160 nM.

For the compound `C[C@@H](O)C(=O)N1CCC(CCn2c(Sc3cc4c(cc3Br)OCCO4)nc3c(N)ncnc32)CC1` [compound 113, (2R)-1-[4-(2-{6-Amino-8-[(7-bromo-2,3-dihydro-1,4-benzodioxin-6-yl)thio]-9H-purin-9-yl}ethyl)piperidin-1-yl]-1-oxopropan-2-ol], the IC50 turned out to be 72 nM.
